Experimental data taken from ChEMBL document CHEMBL4007507 (J Med Chem, 2017).
Each block holds one compound with its values, some of them ahead of it. Active and inactive are the calls of the source. No cut-off for these calls is given here.

What was measured:
[1] = system: SJSA-1; assay: cells; details: Homo sapiens
[2] = system: SJSA-1; details: Homo sapiens, 30 mg/kg
[3] = system: RS4-11; details: Homo sapiens
[4] = system: SAOS-2; assay: cells; details: Homo sapiens
[5] = system: LNCaP; assay: cells; details: Homo sapiens
[6] = system: PC-3; assay: cells; details: Homo sapiens
[7] = system: HCT-116; assay: cells; details: Homo sapiens
[8] = system: HCT-116; assay: cells; details: Homo sapiens; remark: listed apart in the source
[9] = in vivo; details: rat, po, 25 mg/kg
[10] = in vivo; details: rat, po, 25 mg/kg; remark: listed apart in the source
[11] = in vivo; details: rat, iv, 10 mg/kg
[12] = in vivo; details: rat, iv, 10 mg/kg; remark: listed apart in the source
[13] = in vivo; details: rat, iv, 10 mg/kg; remark: listed apart in the source
[14] = system: SJSA-1; details: Homo sapiens, 50 mg/kg
[15] = in vivo; details: rat, po, 25 mg/kg; remark: listed apart in the source
[16] = system: SJSA-1; details: Homo sapiens
[17] = in vivo; details: rat, iv, 5 mg/kg
[18] = in vivo; details: rat, iv, 5 mg/kg; remark: listed apart in the source
[19] = in vivo; details: rat, iv, 5 mg/kg; remark: listed apart in the source
[20] = physchem; details: 1:1 CH3CN/H2O solution
[21] = physchem; details: 1:1 MeOH/H2O solution
[22] = physchem; details: cell culture media
[23] = system: SJSA-1; details: Homo sapiens, 100 mg/kg
[24] = system: RS4-11; assay: cells; details: Homo sapiens

IC50 [1]: 190 nM
Compound: O=C(O)c1ccc(NC(=O)[C@@H]2NC3(CCCCC3)[C@@]3(C(=O)Nc4cc(Cl)ccc43)[C@H]2c2cccc(Cl)c2F)cc1F

Cmax [15]: 1550 ng/mL
AUC [9]: 6800 ng·h/mL
half-life [10]: 4 h
AUC [11]: 8630 ng·h/mL
clearance [12]: 19.3 mL/min/kg
Vd [13]: 2.14 L/kg
Compound: O=C(O)c1ccc(NC(=O)[C@@H]2NC3(CCCCC3)[C@@]3(C(=O)Nc4cc(Cl)ccc43)[C@H]2c2cccc(Cl)c2F)cc1
TGI [14]: Active

IC50 [1]: 1400 nM
Compound: O=C(O)CCCNC(=O)[C@@H]1NC2(CCCCC2)[C@@]2(C(=O)Nc3cc(Cl)ccc32)[C@H]1c1cccc(Cl)c1F

IC50 [1]: 140 nM
Compound: CS(=O)(=O)c1ccc(NC(=O)[C@@H]2NC3(CCCCC3)[C@@]3(C(=O)Nc4cc(Cl)ccc43)[C@H]2c2cccc(Cl)c2F)cc1

IC50 [1]: 240 nM
Compound: O=C(O)c1ccc(NC(=O)[C@@H]2NC3(CCCCC3)[C@@]3(C(=O)Nc4cc(Cl)ccc43)[C@H]2c2cccc(Cl)c2F)cn1

IC50 [1]: 61 nM
Compound: COc1cc(C(=O)O)ccc1NC(=O)[C@@H]1NC2(CCCCC2)[C@@]2(C(=O)Nc3cc(Cl)ccc32)[C@H]1c1cccc(Cl)c1F

IC50 [1]: 13 nM
Cmax [15]: 968 ng/mL
AUC [9]: 10200 ng·h/mL
half-life [10]: 4.5 h
AUC [11]: 14800 ng·h/mL
clearance [12]: 11.5 mL/min/kg
Vd [13]: 2.45 L/kg
Compound: CC1(C)CCC2(CC1)N[C@@H](C(=O)Nc1ccc(C(=O)O)cc1)[C@H](c1cccc(Cl)c1F)[C@]21C(=O)Nc2cc(Cl)ccc21
TGI [14]: Active
TGI [16]: Dose-dependent effect

IC50 [1]: 230 nM
Compound: O=C(O)c1ccc(NC(=O)[C@@H]2NC3(CCCCC3)[C@@]3(C(=O)Nc4cc(Cl)ccc43)[C@H]2c2cccc(Cl)c2F)c(F)c1

IC50 [1]: 760 nM
Compound: O=C(O)Cc1ccc(NC(=O)[C@@H]2NC3(CCCCC3)[C@@]3(C(=O)Nc4cc(Cl)ccc43)[C@H]2c2cccc(Cl)c2F)cc1

IC50 [1]: 120 nM
Compound: COc1cc(NC(=O)[C@@H]2NC3(CCCCC3)[C@@]3(C(=O)Nc4cc(Cl)ccc43)[C@H]2c2cccc(Cl)c2F)ccc1C(=O)O

IC50 [1]: 760 nM
Compound: O=C(O)c1cccc(NC(=O)[C@@H]2NC3(CCCCC3)[C@@]3(C(=O)Nc4cc(Cl)ccc43)[C@H]2c2cccc(Cl)c2F)c1

IC50 [1]: 6200 nM
Compound: O=C(O)c1ccc(NC(=O)[C@@H]2NC3(CCCCC3)[C@@]3(C(=O)Nc4cc(Cl)ccc43)[C@H]2c2cccc(Cl)c2F)o1

IC50 [1]: 5800 nM
Compound: CS(=O)(=O)NC(=O)c1ccc(NC(=O)[C@@H]2NC3(CCCCC3)[C@@]3(C(=O)Nc4cc(Cl)ccc43)[C@H]2c2cccc(Cl)c2F)cc1

IC50 [1]: 11200 nM
Compound: NS(=O)(=O)c1ccc(NC(=O)[C@@H]2NC3(CCCCC3)[C@@]3(C(=O)Nc4cc(Cl)ccc43)[C@H]2c2cccc(Cl)c2F)cc1

More lines, now with the values behind:

Compound: COc1cc(C(N)=O)ccc1NC(=O)[C@@H]1NC2(CCCCC2)[C@@]2(C(=O)Nc3cc(Cl)ccc32)[C@H]1c1cccc(Cl)c1F
IC50 [1]: 120 nM

Compound: CCN1[C@@H](C(=O)NC23CCC(C(=O)O)(CC2)CC3)[C@H](c2cccc(Cl)c2F)[C@]2(C(=O)Nc3cc(Cl)ccc32)C12CCCCC2 [ALRIZOMADLIN]
TGI [2]: Active
TGI [3]: Dose-dependent effect
IC50 [1]: 60 nM
IC50 [4]: 22700 nM
IC50 [5]: 18 nM
IC50 [6]: 22000 nM
IC50 [7]: 104 nM
IC50 [8]: 8000 nM
AUC [9]: 39100 ng·h/mL
half-life [10]: 4.6 h
AUC [11]: 38300 ng·h/mL
clearance [12]: 4.28 mL/min/kg
Vd [13]: 1.25 L/kg

Compound: CS(=O)(=O)NC(=O)C12CCC(NC(=O)[C@@H]3NC4(CCCCC4)[C@@]4(C(=O)Nc5cc(Cl)ccc54)[C@H]3c3cccc(Cl)c3F)(CC1)CC2
IC50 [1]: 370 nM

Compound: CN1[C@@H](c2nc(C(=O)O)co2)[C@H](c2cccc(Cl)c2F)[C@]2(C(=O)Nc3cc(Cl)ccc32)C12CCCCC2
IC50 [1]: > 10000 nM

Compound: O=C(N[C@H]1C[C@H](C(=O)O)C1)[C@@H]1NC2(CCCCC2)[C@@]2(C(=O)Nc3cc(Cl)ccc32)[C@H]1c1cccc(Cl)c1F
IC50 [1]: 220 nM

Compound: Cc1oc([C@H]2[C@H](c3cccc(Cl)c3F)[C@]3(C(=O)Nc4cc(Cl)ccc43)C3(CCCCC3)N2C)nc1C(=O)O
IC50 [1]: 6000 nM

Compound: O=C(N[C@H]1CC[C@H](C(=O)O)CC1)[C@@H]1NC2(CCCCC2)[C@@]2(C(=O)Nc3cc(Cl)ccc32)[C@H]1c1cccc(Cl)c1F
TGI [14]: Active
IC50 [1]: 150 nM

Compound: Cc1nnc([C@H]2[C@H](c3cccc(Cl)c3F)[C@]3(C(=O)Nc4cc(Cl)ccc43)C3(CCCCC3)N2C)o1
IC50 [1]: 5000 nM

Compound: O=C(NC[C@H]1CC[C@H](C(=O)O)CC1)[C@@H]1NC2(CCCCC2)[C@@]2(C(=O)Nc3cc(Cl)ccc32)[C@H]1c1cccc(Cl)c1F
IC50 [1]: 1900 nM

Compound: CN1[C@@H](C(=O)NC23CCC(C(=O)O)(CC2)CC3)[C@H](c2cccc(Cl)c2F)[C@]2(C(=O)Nc3cc(Cl)ccc32)C12CCCCC2
TGI [2]: Active
AUC [9]: 35200 ng·h/mL
half-life [10]: 3.9 h
AUC [11]: 28800 ng·h/mL
clearance [12]: 5.87 mL/min/kg
Vd [13]: 1.1 L/kg

Compound: O=C(NC12CC(C(=O)O)(C1)C2)[C@@H]1NC2(CCCCC2)[C@@]2(C(=O)Nc3cc(Cl)ccc32)[C@H]1c1cccc(Cl)c1F
IC50 [1]: 540 nM

Compound: CN1[C@@H](c2nc(C(=O)O)cs2)[C@H](c2cccc(Cl)c2F)[C@]2(C(=O)Nc3cc(Cl)ccc32)C12CCCCC2
IC50 [1]: > 10000 nM

Compound: O=C(NC12CCC(C(=O)O)(CC1)CC2)[C@@H]1NC2(CCC(F)(F)CC2)[C@@]2(C(=O)Nc3cc(Cl)ccc32)[C@H]1c1cccc(Cl)c1F
IC50 [1]: 170 nM

Compound: CC(C)(C)C[C@@H]1N[C@@H](C(=O)N[C@H]2CC[C@H](O)CC2)[C@H](c2cccc(Cl)c2F)[C@]12C(=O)Nc1cc(Cl)ccc12 [SAR-405838]
TGI [14]: Active
half-life [10]: 1.6 h
AUC [17]: 4630 ng·h/mL
clearance [18]: 17.2 mL/min/kg
Vd [19]: 2.98 L/kg
remaining at 168 h [20]: 93 to 96%
remaining at 168 h [21]: 93 to 96%
remaining at 168 h [22]: 93 to 96%

Compound: O=C(NC1CCS(=O)(=O)CC1)[C@@H]1NC2(CCCCC2)[C@@]2(C(=O)Nc3cc(Cl)ccc32)[C@H]1c1cccc(Cl)c1F
IC50 [1]: 540 nM

Compound: Cc1noc([C@H]2[C@H](c3cccc(Cl)c3F)[C@]3(C(=O)Nc4cc(Cl)ccc43)C3(CCCCC3)N2C)n1
IC50 [1]: 12100 nM

Compound: O=C(N[C@H]1CC[C@@H](C(=O)O)CC1)[C@@H]1NC2(CCCCC2)[C@@]2(C(=O)Nc3cc(Cl)ccc32)[C@H]1c1cccc(Cl)c1F
IC50 [1]: 1740 nM

Compound: Cc1nnc([C@H]2[C@H](c3cccc(Cl)c3F)[C@]3(C(=O)Nc4cc(Cl)ccc43)C3(CCCCC3)N2C)s1
IC50 [1]: 3000 nM

Compound: O=C(NC12CCC(C(=O)O)(CC1)CC2)[C@@H]1NC2(CCCCC2)[C@@]2(C(=O)Nc3cc(Cl)ccc32)[C@H]1c1cccc(Cl)c1F
TGI [14]: Active
TGI [23]: Active
IC50 [1]: 89 nM
IC50 [4]: 26700 nM
IC50 [5]: 36 nM
IC50 [24]: 62 nM
IC50 [6]: 12300 nM
IC50 [7]: 137 nM
IC50 [8]: 14000 nM
half-life [10]: 4.3 h
AUC [11]: 82200 ng·h/mL
clearance [12]: 1.98 mL/min/kg
Vd [13]: 0.734 L/kg

Compound: CC1(C)CCC2(CC1)N[C@@H](C(=O)N[C@H]1CC[C@H](O)CC1)[C@H](c1cccc(Cl)c1F)[C@]21C(=O)Nc2cc(Cl)ccc21
IC50 [1]: 48 nM

Compound: CS(=O)(=O)NC(=O)[C@@H]1NC2(CCCCC2)[C@@]2(C(=O)Nc3cc(Cl)ccc32)[C@H]1c1cccc(Cl)c1F
IC50 [1]: 8900 nM

Compound: CC(=O)N1CC(NC(=O)[C@@H]2NC3(CCCCC3)[C@@]3(C(=O)Nc4cc(Cl)ccc43)[C@H]2c2cccc(Cl)c2F)C1
IC50 [1]: 240 nM

Compound: CN1[C@@H](c2nc(CC(=O)O)cs2)[C@H](c2cccc(Cl)c2F)[C@]2(C(=O)Nc3cc(Cl)ccc32)C12CCCCC2
IC50 [1]: 2690 nM
